For one assay, the target named is T1, human calcium receptor (Homo sapiens, UniProt P41180).
T1 construct: expressed in transfected cells; host or cells: cell strain derived from rat adrenal, co-transformed with luciferase cDNA
T1 sequence (P41180 20-1078): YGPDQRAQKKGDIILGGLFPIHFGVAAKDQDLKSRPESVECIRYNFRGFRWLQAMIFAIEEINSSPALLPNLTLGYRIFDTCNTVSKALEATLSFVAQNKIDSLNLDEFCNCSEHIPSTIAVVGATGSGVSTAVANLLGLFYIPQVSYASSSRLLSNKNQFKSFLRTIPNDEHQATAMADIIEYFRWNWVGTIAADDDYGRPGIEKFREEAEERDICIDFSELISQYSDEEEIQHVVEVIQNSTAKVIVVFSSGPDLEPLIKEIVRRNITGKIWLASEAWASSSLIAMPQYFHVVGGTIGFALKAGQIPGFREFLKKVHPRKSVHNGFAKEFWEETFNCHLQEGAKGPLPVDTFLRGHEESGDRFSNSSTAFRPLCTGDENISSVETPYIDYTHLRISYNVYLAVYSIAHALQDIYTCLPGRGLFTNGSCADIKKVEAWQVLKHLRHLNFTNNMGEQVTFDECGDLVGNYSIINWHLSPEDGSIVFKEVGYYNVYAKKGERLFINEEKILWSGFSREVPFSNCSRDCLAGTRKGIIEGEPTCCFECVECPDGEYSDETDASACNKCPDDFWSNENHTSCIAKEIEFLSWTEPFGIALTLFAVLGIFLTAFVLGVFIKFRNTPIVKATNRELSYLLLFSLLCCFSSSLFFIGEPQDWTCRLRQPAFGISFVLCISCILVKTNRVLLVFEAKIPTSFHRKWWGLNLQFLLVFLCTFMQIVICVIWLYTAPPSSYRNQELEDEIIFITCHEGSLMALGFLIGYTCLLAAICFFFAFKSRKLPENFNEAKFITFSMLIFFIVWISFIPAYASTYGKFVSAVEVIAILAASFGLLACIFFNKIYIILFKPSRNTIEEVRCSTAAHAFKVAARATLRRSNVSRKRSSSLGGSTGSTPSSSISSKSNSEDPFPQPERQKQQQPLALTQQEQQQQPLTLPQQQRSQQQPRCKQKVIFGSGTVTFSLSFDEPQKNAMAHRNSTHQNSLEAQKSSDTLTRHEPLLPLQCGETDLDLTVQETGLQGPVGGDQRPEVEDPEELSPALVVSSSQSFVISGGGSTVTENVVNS
The experiment in a line: Evaluation of antagonistic action on calcium receptor using reporter gene (luciferase). The note with it: transformed rat adrenal derived cells, 5 mM calcium chloride, culture 4 hrs, luciferase activity; read-out: Reporter gene assay (IC50, concentration showing 50% inhibitory rate). In kind it is cell-based. The method in brief:
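Rat adrenal-derived cells transfected with luciferase and human calcium receptor cDNA, in F12 with 0.5% dialyzed horse serum and 0.25% dialyzed fetal bovine serum. Luciferase luminescence gave % inhibition vs control and blank; IC50 at 50% inhibition.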
For orientation: A reporter such as luciferase makes a cellular process visible.

The next assay relates to PTH secretion. The experiment in a line: PTH secretion action, Experimental Example 2 (serum PTH after oral administration). In kind it is in vivo, male SD rats. As to conditions: test compound administration group, 1 mg/5 ml/kg oral, rats fasted 20 hr. As to the method: The test compound was orally administered to 5 to 9-week-old male SD rats (Charles River Japan, Inc.) fasted for 20 hr, using a solvent (0.5% methyl cellulose solution) at a dose of 1 mg/5 ml/kg. A solvent alone was orally administered to the control group at a dose of 5 ml/kg. The blood was drawn from the tail vein immediately before and, 15 min, 30 min, 60 min and 120 min after the administration of the test compound, and serum was obtained. The serum PTH concentration was measured using rat PTH ELISA kit (Amersham Biosciences).

Turning to `Cc1cc(-c2ccccc2[C@@H](C)OC[C@H](O)CNC(C)(C)Cc2ccc(Cl)c(F)c2)ccc1C(=O)O` [Example 1-2, 2′-[(1R)-[(2R)-3-[[1-(4-Chloro-3-fluorophenyl)-2-methylpropan-2-yl]amino]-2-hydroxypropoxy]ethyl]-3-methylbiphenyl-4-carboxylic acid], the IC50 on human calcium receptor is 13 nM. In the assay on PTH secretion, the “Serum PTH concentration 15 min later” value stood at 28.5 ± 5.3 pg/mL, the “Serum PTH concentration 30 min later” value was found to be 27.1 ± 2.3 pg/mL, the “Serum PTH concentration 60 min later” value was determined as 10.5 ± 1.3 pg/mL and the “Serum PTH concentration 120 min later” value amounted to 12.4 ± 1.6 pg/mL. On to `Cc1ccc(CC(C)(C)NC[C@@H](O)CO[C@H](C)c2ccccc2-c2ccc(C(=O)O)c(C)c2)cc1Cl` [Example 1-3, 2′-[1-[(2R)-3-[[1-(3-chloro-4-methylphenyl)-2-methylpropan-2-yl]amino]-2-hydroxypropoxy]ethyl]-3-methylbiphenyl-4-carboxylic acid], for which, on human calcium receptor, the IC50 worked out at 10 nM. Also, in the assay on PTH secretion, the “Serum PTH concentration 15 min later” value stood at 23.8 ± 1.6 pg/mL, the “Serum PTH concentration 30 min later” value is 25.1 ± 3.9 pg/mL, the “Serum PTH concentration 60 min later” value worked out at 9.5 ± 0.5 pg/mL and the “Serum PTH concentration 120 min later” value is 11.6 ± 0.9 pg/mL.

Turning to `Cc1cc(-c2ccccc2[C@@H](C)OC[C@H](O)CNC(C)(C)Cc2ccc(Cl)cc2F)ccc1C(=O)O` [Example 1-6, 2′-[1-[(2R)-3-[[1-(4-chloro-2-fluorophenyl)-2-methylpropan-2-yl]amino]-2-hydroxypropoxy]ethyl]-3-methylbiphenyl-4-carboxylic acid], the IC50 at human calcium receptor worked out at 20 nM. Also, in the assay with PTH secretion, the “Serum PTH concentration 15 min later” value was 28.9 ± 6.9 pg/mL, the “Serum PTH concentration 30 min later” value came to 19.2 ± 3.1 pg/mL, the “Serum PTH concentration 60 min later” value was 10.0 ± 1.7 pg/mL and the “Serum PTH concentration 120 min later” value worked out at 8.3 ± 0.6 pg/mL.

As to `CCc1cc(-c2ccccc2[C@@H](C)OC[C@H](O)CNC(C)(C)Cc2ccc3ccccc3c2)ccc1C(=O)O` [Example 1-30, 3-ethyl-2′-[1-[(2R)-3-[[1-(naphthalen-2-yl)-2-methylpropan-2-yl]amino]-2-hydroxypropoxy]ethyl]biphenyl-4-carboxylic acid], the IC50 on human calcium receptor stood at 7 nM. Further, in the assay with PTH secretion, the “Serum PTH concentration 15 min later” value is 26.1 ± 2.3 pg/mL, the “Serum PTH concentration 30 min later” value came to 24.2 ± 3.3 pg/mL, the “Serum PTH concentration 60 min later” value was 18.2 ± 1.3 pg/mL and the “Serum PTH concentration 120 min later” value was 13.8 ± 0.6 pg/mL. Take `Cc1ccc(CC(C)(C)NC[C@@H](O)CO[C@H](C)c2ccccc2OCc2cccc(C(=O)O)c2)cc1F` [Example 2-23, 3-[[2-[1-[(2R)-3-[[1-(3-fluoro-4-methylphenyl)-2-methylpropan-2-yl]amino]-2-hydroxypropoxy]ethyl]phenoxy]methyl]benzoic acid]: the IC50 at human calcium receptor was found to be 27 nM. The same measure, in the same setting: then `Cc1ccc(CC(C)(C)NC[C@@H](O)CO[C@H](C)c2ccccc2OCc2ccc(C(=O)O)cc2)cc1F` [Example 2-24, 4-[[2-[1-[(2R)-3-[[1-(3-fluoro-4-methylphenyl)-2-methylpropan-2-yl]amino]-2-hydroxypropoxy]ethyl]phenoxy]methyl]benzoic acid], with 57 nM; and `Cc1ccc(CC(C)(C)NC[C@@H](O)CO[C@H](C)c2ccccc2OCc2ccc(C(=O)O)cc2F)cc1F` [Example 2-25, 3-fluoro-4-[[2-[1-[(2R)-3-[[1-(3-fluoro-4-methylphenyl)-2-methylpropan-2-yl]amino]-2-hydroxypropoxy]ethyl]phenoxy]methyl]benzoic acid], with 65 nM; and `Cc1ccc(CC(C)(C)NC[C@@H](O)CO[C@H](C)c2ccccc2OCc2ccc(C(=O)O)cc2C)cc1F` [Example 2-26, 4-[[2-[1-[(2R)-3-[[1-(3-fluoro-4-methylphenyl)-2-methylpropan-2-yl]amino]-2-hydroxypropoxy]ethyl]phenoxy]methyl]-3-methylbenzoic acid], with 24 nM. On the same count and under the same terms, then `COc1cc(C(=O)O)cc(OC)c1Oc1ccccc1C(C)OC[C@H](O)CNC(C)(C)Cc1ccc(C)c(F)c1` (stereo partly drawn) [Example 2-27, 4-[2-[1-[(2R)-3-[[1-(3-fluoro-4-methylphenyl)-2-methylpropan-2-yl]amino]-2-hydroxypropoxy]ethyl]phenoxy]-3,5-dimethoxybenzoic acid], with 27 nM; and `Cc1ccc(CC(C)(C)NC[C@@H](O)CO[C@H](C)c2ccccc2Oc2ccc(C(=O)O)cc2[N+](=O)[O-])cc1F` [Example 2-28, 4-[2-[1-[(2R)-3-[[1-(3-fluoro-4-methylphenyl)-2-methylpropan-2-yl]amino]-2-hydroxypropoxy]ethyl]phenoxy]-3-nitrobenzoic acid], with 3 nM; and `Cc1ccc(CC(C)(C)NC[C@@H](O)CO[C@H](C)c2ccccc2Oc2ccc(C(=O)O)c([N+](=O)[O-])c2)cc1F` [Example 2-29, 4-[2-[1-[(2R)-3-[[1-(3-fluoro-4-methylphenyl)-2-methylpropan-2-yl]amino]-2-hydroxypropoxy]ethyl]phenoxy]-2-nitrobenzoic acid], with 11 nM.

In the case of `Cc1ccc(CC(C)(C)NC[C@@H](O)CO[C@H](C)c2ccccc2Oc2ccc(C(=O)O)cc2Cl)cc1F` [Example 2-30, 4-[2-[1-[(2R)-3-[[1-(3-fluoro-4-methylphenyl)-2-methylpropan-2-yl]amino]-2-hydroxypropoxy]ethyl]phenoxy]-3-chlorobenzoic acid], the IC50 at human calcium receptor turned out to be 3 nM. The same measure, in the same setting: then `Cc1ccc(CC(C)(C)NC[C@@H](O)CO[C@H](C)c2ccccc2Oc2ccc(C(=O)O)c(Cl)c2)cc1F` [Example 2-31, 4-[2-[1-[(2R)-3-[[1-(3-fluoro-4-methylphenyl)-2-methylpropan-2-yl]amino]-2-hydroxypropoxy]ethyl]phenoxy]-2-chlorobenzoic acid], with 16 nM; and `Cc1ccc(CC(C)(C)NC[C@@H](O)CO[C@H](C)c2ccccc2Oc2ccc(C(=O)O)c(C(F)(F)F)c2)cc1F` [Example 2-32, 4-[2-[1-[(2R)-3-[[1-(3-fluoro-4-methylphenyl)-2-methylpropan-2-yl]amino]-2-hydroxypropoxy]ethyl]phenoxy]-2-trifluoromethylbenzoic acid], with 14 nM. Still for that read-out and setting: then `Cc1ccc(CC(C)(C)NC[C@@H](O)CO[C@H](C)c2ccccc2Oc2ccc(C(=O)O)cc2C(F)(F)F)cc1F` [Example 2-33, 4-[2-[1-[(2R)-3-[[1-(3-fluoro-4-methylphenyl)-2-methylpropan-2-yl]amino]-2-hydroxypropoxy]ethyl]phenoxy]-3-trifluoromethylbenzoic acid], with 2 nM; and `Cc1ccc(CC(C)(C)NC[C@@H](O)CO[C@H](C)c2ccccc2Oc2ccc(C(=O)O)cc2F)cc1F` [Example 2-34, 4-[2-[1-[(2R)-3-[[1-(3-fluoro-4-methylphenyl)-2-methylpropan-2-yl]amino]-2-hydroxypropoxy]ethyl]phenoxy]-3-fluorobenzoic acid], with 6 nM. Still for that read-out and setting: then `C[C@@H](OC[C@H](O)CNC(C)(C)Cc1ccc(Cl)c(F)c1)c1ccccc1Oc1ccc(C(=O)O)cc1` [Example 2-35, 4-[2-[1-[(2R)-3-[[1-(4-chloro-3-fluorophenyl)-2-methylpropan-2-yl]amino]-2-hydroxypropoxy]ethyl]phenoxy]benzoic acid], with 11 nM; and `Cc1cc(C(=O)O)ccc1Oc1ccccc1C(C)OC[C@H](O)CNC(C)(C)Cc1ccc(Cl)c(F)c1` (stereo partly drawn) [Example 2-36, 4-[2-[1-[(2R)-3-[[1-(4-chloro-3-fluorophenyl)-2-methylpropan-2-yl]amino]-2-hydroxypropoxy]ethyl]phenoxy]-5-methylbenzoic acid], with 13 nM.

The values above are taken from patent US7304174B2, “CaSR antagonist” (Japan Tobacco Inc., priority 2003, dated 2007).
